Legend:
[1] = molecular target: T1, Adrenergic receptor alpha-2 (Rattus norvegicus, UniProt P22086+P19328+P22909)
T1 sequence (P22086 whole entry): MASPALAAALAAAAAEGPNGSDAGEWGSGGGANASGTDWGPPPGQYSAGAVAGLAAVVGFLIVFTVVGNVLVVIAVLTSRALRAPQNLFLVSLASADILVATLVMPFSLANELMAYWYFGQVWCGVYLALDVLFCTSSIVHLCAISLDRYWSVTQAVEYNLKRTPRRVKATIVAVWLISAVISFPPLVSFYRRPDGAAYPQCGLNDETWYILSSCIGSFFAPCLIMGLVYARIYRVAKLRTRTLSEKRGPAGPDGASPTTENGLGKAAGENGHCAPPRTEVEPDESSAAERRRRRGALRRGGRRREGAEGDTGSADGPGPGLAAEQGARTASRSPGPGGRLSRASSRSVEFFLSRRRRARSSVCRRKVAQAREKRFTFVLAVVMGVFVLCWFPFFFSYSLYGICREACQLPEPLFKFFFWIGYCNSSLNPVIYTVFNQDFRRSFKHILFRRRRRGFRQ
T1 sequence (P19328 whole entry): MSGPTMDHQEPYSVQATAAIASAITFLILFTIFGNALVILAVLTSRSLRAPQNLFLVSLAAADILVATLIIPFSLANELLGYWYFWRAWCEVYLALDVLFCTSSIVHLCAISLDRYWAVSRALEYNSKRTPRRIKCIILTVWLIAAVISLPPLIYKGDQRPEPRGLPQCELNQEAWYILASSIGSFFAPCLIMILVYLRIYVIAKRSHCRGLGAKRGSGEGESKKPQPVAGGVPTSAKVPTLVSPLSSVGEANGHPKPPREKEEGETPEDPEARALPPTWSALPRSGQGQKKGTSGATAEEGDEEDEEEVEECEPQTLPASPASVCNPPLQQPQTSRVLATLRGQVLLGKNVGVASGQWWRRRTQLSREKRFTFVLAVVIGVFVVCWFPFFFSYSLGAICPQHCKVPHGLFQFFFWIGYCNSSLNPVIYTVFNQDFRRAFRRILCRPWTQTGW
T1 sequence (P22909 whole entry): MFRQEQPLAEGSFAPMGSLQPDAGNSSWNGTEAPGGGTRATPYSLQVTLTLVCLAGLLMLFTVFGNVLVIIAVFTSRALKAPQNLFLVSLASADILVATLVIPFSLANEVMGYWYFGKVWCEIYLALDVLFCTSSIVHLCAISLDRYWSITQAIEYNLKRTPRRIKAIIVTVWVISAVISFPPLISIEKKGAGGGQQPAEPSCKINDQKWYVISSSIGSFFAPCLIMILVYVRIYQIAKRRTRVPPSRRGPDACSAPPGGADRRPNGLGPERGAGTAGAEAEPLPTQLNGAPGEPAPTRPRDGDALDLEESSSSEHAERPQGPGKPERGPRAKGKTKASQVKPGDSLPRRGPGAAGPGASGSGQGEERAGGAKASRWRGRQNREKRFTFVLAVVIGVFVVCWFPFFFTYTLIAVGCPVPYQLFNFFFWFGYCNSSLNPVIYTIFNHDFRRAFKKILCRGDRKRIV

[2] = molecular target: T2, Adrenergic receptor alpha-1 (Rattus norvegicus, UniProt P15823+P23944+P43140); test: In vitro binding affinity was measured as the inhibition of [3H]WB-4101 binding to alpha-1 adrenergic receptor of rat cortical membranes; assay type: cell membranes, Membrane
T2 sequence (P15823 whole entry): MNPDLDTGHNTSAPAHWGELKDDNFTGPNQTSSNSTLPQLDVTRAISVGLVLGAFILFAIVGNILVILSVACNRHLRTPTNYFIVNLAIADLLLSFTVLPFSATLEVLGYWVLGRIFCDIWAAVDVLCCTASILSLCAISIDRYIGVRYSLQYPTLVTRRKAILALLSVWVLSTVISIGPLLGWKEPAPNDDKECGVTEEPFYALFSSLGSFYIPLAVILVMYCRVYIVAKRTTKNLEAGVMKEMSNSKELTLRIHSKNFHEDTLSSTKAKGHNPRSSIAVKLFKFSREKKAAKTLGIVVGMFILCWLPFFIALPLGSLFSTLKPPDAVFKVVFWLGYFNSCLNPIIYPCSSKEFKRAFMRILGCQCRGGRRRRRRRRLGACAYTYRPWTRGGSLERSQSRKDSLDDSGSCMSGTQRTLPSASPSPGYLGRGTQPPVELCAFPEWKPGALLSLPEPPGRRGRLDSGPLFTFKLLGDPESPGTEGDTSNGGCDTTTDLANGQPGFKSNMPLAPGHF
T2 sequence (P23944 whole entry): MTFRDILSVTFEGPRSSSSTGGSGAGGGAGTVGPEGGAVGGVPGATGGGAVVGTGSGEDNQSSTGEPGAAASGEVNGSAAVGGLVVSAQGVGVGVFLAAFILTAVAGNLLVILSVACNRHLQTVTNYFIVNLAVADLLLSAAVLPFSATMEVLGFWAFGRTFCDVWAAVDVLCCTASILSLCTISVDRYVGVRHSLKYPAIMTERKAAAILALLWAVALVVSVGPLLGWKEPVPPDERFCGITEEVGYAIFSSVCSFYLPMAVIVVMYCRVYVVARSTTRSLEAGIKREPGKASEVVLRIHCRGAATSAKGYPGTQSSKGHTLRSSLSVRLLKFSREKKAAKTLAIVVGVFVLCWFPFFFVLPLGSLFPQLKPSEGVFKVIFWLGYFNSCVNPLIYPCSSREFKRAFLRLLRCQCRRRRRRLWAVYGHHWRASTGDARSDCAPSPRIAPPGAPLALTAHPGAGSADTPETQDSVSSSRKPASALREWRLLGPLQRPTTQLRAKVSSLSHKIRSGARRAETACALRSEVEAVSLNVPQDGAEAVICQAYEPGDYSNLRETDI
T2 sequence (P43140 whole entry): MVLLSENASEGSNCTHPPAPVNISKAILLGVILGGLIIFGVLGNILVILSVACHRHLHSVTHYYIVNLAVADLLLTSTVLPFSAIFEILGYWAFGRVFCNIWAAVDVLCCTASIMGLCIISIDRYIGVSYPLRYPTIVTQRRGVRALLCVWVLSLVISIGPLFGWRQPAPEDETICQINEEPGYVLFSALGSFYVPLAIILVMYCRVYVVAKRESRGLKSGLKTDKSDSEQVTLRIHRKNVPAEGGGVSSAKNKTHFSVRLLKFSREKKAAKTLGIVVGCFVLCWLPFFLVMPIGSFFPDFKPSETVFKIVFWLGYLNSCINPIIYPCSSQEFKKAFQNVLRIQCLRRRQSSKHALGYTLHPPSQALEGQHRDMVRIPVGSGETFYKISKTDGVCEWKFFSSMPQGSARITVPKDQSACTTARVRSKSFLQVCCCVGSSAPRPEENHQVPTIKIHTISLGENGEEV

Dopamine receptor = test: In vitro binding affinity to Dopamine receptors of rat striatal membranes by [3H]spiroperidol displacement.
[3] = molecular target: T1, Adrenergic receptor alpha-2; test: Inhibition of [3H]idazoxan binding to alpha-2 adrenergic receptor of rat cortical membranes; assay type: cell membranes, Membrane
[4] = molecular target: T1, Adrenergic receptor alpha-2; test: In vitro binding affinity was measured as the inhibition of [3H]idazoxan to alpha-2 adrenergic receptors of rat cortical membranes; assay type: cell membranes, Membrane

Structure (SMILES)	Ki [1] [nM]	Ki [2] [nM]	Ki (Dopamine receptor) [nM]	Ki [3] [nM]	Ki [4] [nM]
CC(C)Nc1nc(N2CCNCC2)nc(Cl)c1Br	16	200	880	28	–
CSc1c(Cl)nc(N2CCN(C)CC2)nc1Nc1ccccc1	240	140	–	500	–
CN1CCN(c2nc(N)c(Cl)c(Cl)n2)CC1	50	67	–	–	–
CSc1c(Cl)nc(N2CCN(C)CC2)nc1NC1CCCCC1	290	240	–	–	–
CC(C)Nc1cc(Cl)nc(N2CCN(C)CC2)n1	130	> 180	–	–	200
CNc1nc(N2CCN(C)CC2)nc(Cl)c1SC	360	1800	–	–	–
CC(C)Nc1nc(N2CCN(C)CC2)nc(Cl)c1Cl	5	42	2400	–	14
Cc1c(Cl)nc(N2CCNCC2)nc1NC(C)C	6	860	2900	13	–
CSc1c(Cl)nc(N2CCN(C)CC2)nc1NC(C)C	26	360	640	–	–
CNc1cc(Cl)nc(N2CCN(C)CC2)n1	50	280	630	100	–
Cc1c(Cl)nc(N2CCN(C)CC2)nc1NC(C)C	16	200	880	–	–
CNc1nc(Cl)c(SC)c(N2CCN(C)CC2)n1 [MEZILAMINE]	9	91	–	12	–
CSc1c(Cl)nc(N2CCN(C)CC2)nc1NCc1ccccc1	1500	100	14	–	–
COc1c(Cl)nc(N2CCN(C)CC2)nc1NC(C)C	50	310	–	–	–
CSc1c(Cl)nc(N2CCN(C)CC2)nc1NC(C)(C)C	180	450	920	–	–
COc1c(Cl)nc(N2CCN(C)CC2)nc1NC1CCCC1	50	1700	670	29	–

Structure (SMILES)	Ki [1] [nM]	Ki [2] [nM]	Ki (Dopamine receptor) [nM]	Ki [3] [nM]	Ki [4] [nM]
CSc1c(Cl)nc(N2CCNCC2)nc1NC(C)C	36	500	3000	62	–
Clc1cccc(Cl)c1NC1=NCCN1 [CLONIDINE]	–	–	> 4000	–	–
COC(=O)[C@@H]1[C@H]2C[C@H]3c4[nH]c5ccccc5c4CCN3C[C@@H]2CC[C@@H]1O [YOHIMBINE]	–	–	2000	–	–
CSc1c(Cl)nc(N2CCN(C)CC2)nc1NC1CCCC1	22	76	1200	–	–
CN1CCN(c2nc(Cl)c(Cl)c(NC3CCCC3)n2)CC1	120	240	–	–	97
CC(COc1ccccc1)N(CCCl)Cc1ccccc1 (stereo not drawn) [PHENOXYBENZAMINE]	–	1.8	120	–	–
CCNc1nc(N2CCN(C)CC2)nc(Cl)c1SC	90	1800	–	–	–
CSc1c(Cl)nc(N2CCN(C)CC2)nc1NCCc1ccccc1	910	180	1400	–	–
CN1CCN(c2nc(Cl)c(Br)c(NC3CCCC3)n2)CC1	140	250	–	230	–
CN1CCN(c2nc(N)c(Br)c(Cl)n2)CC1	1600	820	10000	–	–
CC(C)Nc1nc(N2CCN(C)CC2)nc(Cl)c1Br	7	290	480	–	–
CNc1nc(N2CCN(C)CC2)nc(Cl)c1Br	150	180	200	–	–
CNc1nc(N2CCN(C)CC2)nc(Cl)c1OC	150	1700	–	–	–
CNc1nc(N2CCN(C)CC2)nc(Cl)c1Cl	44	4	1200	–	–
CSc1c(N)nc(N2CCN(C)CC2)nc1Cl	620	820	1000	–	–

Source: ChEMBL document CHEMBL1123334, “4-Amino-6-chloro-2-piperazinopyrimidines with selective affinity for alpha 2-adrenoceptors” (J Med Chem, 1986)
